Results on eleven molecules are retold here after patent US10189812B2, “Bi-benzyl isoquinoline derivative, preparation method and use thereof in hepatopathy treatment and prevention” (THE KEY LABORATORY OF CHEMISTRY FOR NATURAL PRODUCTS OF …, priority 2014, dated 2019).

What all share (type): cell-based
The test system of test [1] is PLC/PRF/5 liver cancer cell strains. The test can be described thus: Tetrazolium salt reduction method (MTT) on human liver cancer cell strain PLC/PRF/5. The procedure: 2. human liver cancer cell strains PLC/PRF/5 model discrimination
(§1) Tested methods: Tetrazolium salt reduction method (MTT)
(1) Inoculating cells: A uniform cell suspension was prepared with culture solution containing fetal calf serum (10%). The suspension was implanted into a 96-well cell culture disc by 1000-10000 cells/200 μL per well.
(§2) (2) Culturing cells: The cells were cultured for 3-5 days according to known methods in the art (culturing time depending on experiment objective and requirement).
(§3) (3) Colour response: The cells were cultured for 3-5 days, 20 μl of MTT solution (5 mg/mL, PBS <pH=7.4>) was added in each well, incubated for 4 h. Culture was terminated and the culture suspension was carefully sucked out. As for suspension cells, they need be centrifuged before suspension solution in wells was sucked out. 150 μL of DMSO was added in each well, vibrated for 10 min. The crystal was fully dissolved.
(§4) (4) Colorimetry: Light absorbance values in each well were measured by ELISA at 490 nm and the results were recorded. The cell growth curve was drawn with time as the abscissa and absorbance values as vertical coordinates.
Model principle: Dehydrogenase related to NADP exists in mitochondria of living cell. Yellow MIT is reduced to insoluble blue-purple Formanzan. Dehydrogenase is disappeared in dead cell and MIT can not be reduced. According to reduction extent, action effect of sample on tumor cell is defected.

The subject of test [2] is MHCC97L liver cancer cell strains. As to the kind of experiment: Tetrazolium salt reduction method (MTT) on human liver cancer cell strain MHCC97L. The protocol: 3. human liver cancer cell strains MHCC97L model discrimination
as §1
(1) Inoculating cells: Inoculating cells: A uniform cell suspension was prepared with culture solution containing fetal calf serum (10%). The suspension was implanted into a 96-well cell culture disc by 1000-10000 cells/200 μL per well.
as §2, §3, §4
Model principle: Dehydrogenase related to NADP exists in mitochondria of living cell. Yellow MTT is reduced to insoluble blue-purple Formanzan. Dehydrogenase is disappeared in dead cell and MTT can not be reduced. According to reduction extent, action effect of sample on tumor cell is defected.

Another test has as its system BEL-7402 cell. The test can be described thus: Sulforhodamine B (SRB) growth inhibition of human liver cancer cell strain BEL-7402. The following applies: for inhibition at 10 µM: Homo sapiens, read-out: BEL-7402/ Inhibition (%). The protocol: 1. human liver cancer cell strains BEL-7402 model discrimination
Tested methods: Sulforhodamine B (SRB)
According to growth rate of tumor cells, the adherent cells in logarithmic growth phase was implanted into a 96-well cell culture plate by 200 μL per well. Adhering for 24 h before dosing, each concentration was set with 3 holes. The corresponding concentration of saline as for control group and withering holes without cells. The tumor cells were cultured for 72 h under 5% CO2 at 37° C.
The culture plate was takene out, 50 uL of trichloro acetic acid TCA fixed cells which were diluted to 50% (m/v) were added to each well. The plate was kept for 1 h at 4° C. If suspension cells are cultured, 50 uL cold TCA (80%) was added to each well. Final concentration of TCA is 16%, standed for 5 min, kept in a refrigerator for 1 h at 4° C.
Stationary liquid was sucked out, washed by 5 times with distilled water, dried in the air.
After drying in the air, 100 μL of SRB solution was added in each well, kept for 10-30 min at the room temperature.
The supernatant was sucked out, washed by 5 times with acetic acid (1%), dried in the air.
150 μL Tris solution was added in each well, vibrated for 5 min on the tablet oscillator.
OD values were measured with ELISA at 515 nm, zeroed with blank control.
Growth inhibition ratio of tumor cells was calculated according to the following formula: Inhibition=[(OD515control hole−OD515dosing hole)/OD515control hole]×100%.
According to inhibition ratio of different concentration, IC50 was determined with Logit method. Above experiment was repeated 2-3 times to give average IC50 values as for final index.
Model principle: SRB is a kind of protein binding dye which can be binded with basic amino acid in biological macromolecules. OD values in specific wavelength range have linear relationship with cell number. According to OD values of binding substance, action effect of sample on tumor cell is defected.

[3] abbreviates: Homo sapiens, PLC-PRF-5, read-out: PLC/PRF/5 IC50 (μM).
Where [4] appears, read: Homo sapiens, MHCC97L, read-out: MHCC97L IC50 (μM).
[5] abbreviates: MTT, cells cultured 3-5 days, read-out: PLC/PRF/5 IC50.
Setting [6] is: MTT, cells cultured 3-5 days, read-out: MHCC97L IC50.
The mark [7] stands for this setting: 1.00 × 10^−5 mol/L, SRB, cells cultured 72 h.
Setting [8] is: Bel-7402, 1.00 × 10^−5 mol/L, SRB, cells cultured 72 h.

Where two headings read alike, the source gives them in different places.

On to `C=CC(=O)Nc1cc(OC)c2cc1C[C@H]1c3c(cc(OC)c(OC)c3Oc3cc4c(cc3OC)CCN(C)[C@H]4Cc3ccc(cc3)O2)CCN1C` [Compound H-10], for which the IC50 turned out to be 10.7 µM in test [1] (setting [3]) and 10.4 µM in test [2] (setting [4]). Further, the inhibition at 10 µM in the test on BEL-7402 cell (Bel-7402, 72 h) turned out to be 87.74 ± 0.63%.
As to `COc1cc(NC(=O)c2ccco2)c2cc1Oc1ccc(cc1)C[C@H]1c3cc(c(OC)cc3CCN1C)Oc1c(OC)c(OC)cc3c1[C@H](C2)N(C)CC3` [Compound H-15], the IC50 in test [1] (setting [5]) was 2.5 µM; in test [2] (setting [6]), 2.1 µM. The “BEL-7402/ Inhibition (%)” value in the test with BEL-7402 cell (setting [7]) is 87.23 ± 2.26%.
As to `COc1cc(NC(=O)c2cccs2)c2cc1Oc1ccc(cc1)C[C@H]1c3cc(c(OC)cc3CCN1C)Oc1c(OC)c(OC)cc3c1[C@H](C2)N(C)CC3` [Compound H-16], the values for the IC50 in test [1] (setting [5]) and in test [2] (setting [6]) were 9 µM and 11.9 µM, respectively. The “BEL-7402/ Inhibition (%)” value in the test with BEL-7402 cell (setting [7]) stood at 93.40 ± 4.70%.
Regarding `COc1cc(NS(=O)(=O)c2ccc([N+](=O)[O-])cc2)c2cc1Oc1ccc(cc1)C[C@H]1c3cc(c(OC)cc3CCN1C)Oc1c(OC)c(OC)cc3c1[C@H](C2)N(C)CC3` [Compound H-19], the IC50 is 11.6 µM in test [1] (setting [5]) and 9.4 µM in test [2] (setting [6]). The “BEL-7402/ Inhibition (%)” value in the test with BEL-7402 cell (setting [7]) was determined as 92.70 ± 0.55%.
In the same order, the values of `COc1cc(NS(=O)(=O)c2ccc(C)cc2)c2cc1Oc1ccc(cc1)C[C@H]1c3cc(c(OC)cc3CCN1C)Oc1c(OC)c(OC)cc3c1[C@H](C2)N(C)CC3` [Compound H-20] are 11 µM, 12.5 µM and 93.91 ± 0.40%.
For `COc1cc(NS(=O)(=O)c2ccc(Cl)cc2)c2cc1Oc1ccc(cc1)C[C@H]1c3cc(c(OC)cc3CCN1C)Oc1c(OC)c(OC)cc3c1[C@H](C2)N(C)CC3` [Compound H-24], in that order: 9.1 µM, 8.2 µM and 90.01 ± 2.82%.
For `COc1cc(NC(=O)N2CCOCC2)c2cc1Oc1ccc(cc1)C[C@H]1c3cc(c(OC)cc3CCN1C)Oc1c(OC)c(OC)cc3c1[C@H](C2)N(C)CC3` [Compound H-26], in that order: 12.2 µM, 10.8 µM and 89.60 ± 2.01%.
Turning to `COc1cccc2c1C(=O)c1c(O)c3c(c(O)c1C2=O)C[C@@](O)(C(=O)CO)C[C@@H]3O[C@H]1C[C@H](N)[C@H](O)[C@H](C)O1` [Doxorubicin, reference compound], the inhibition at 10 µM in the test on BEL-7402 cell (setting [8]) was determined as 57.8 ± 4.05%.
Turning to `CNC(=O)c1cc(Oc2ccc(NC(=O)Nc3ccc(Cl)c(C(F)(F)F)c3)cc2)ccn1` [Sorafenib, reference compound], the IC50 in test [1] (Homo sapiens, PLC-PRF-5, MTT, cells cultured 3-5 days, read-out: PLC/PRF/5 IC50) came to 26.9 µM; in test [2] (Homo sapiens, MHCC97L, MTT, cells cultured 3-5 days, read-out: MHCC97L IC50) it was 34.4 µM; in test [2] (setting [6]), 34.4 µM.
As for `COc1ccc2cc1Oc1ccc(cc1)C[C@H]1c3cc(c(OC)cc3CCN1C)Oc1c(O)c(OC)cc3c1[C@H](C2)N(C)CC3` [Tetrandrine B, reference compound], the IC50 in test [1] (setting [3]) amounted to 16.9 µM; in test [2] (setting [4]), 12.8 µM. For the same molecule, in the test with BEL-7402 cell (Bel-7402, 72 h), the inhibition at 10 µM is 23.9 ± 3.65%.
For `COc1ccc2cc1Oc1ccc(cc1)C[C@H]1c3cc(c(OC)cc3CCN1C)Oc1c(OC)c(OC)cc3c1[C@H](C2)N(C)CC3` [Tetrandrine, 6,6′,7,12-tetramethoxy-2,2′-dimethyl berbamine, reference compound], in the test with BEL-7402 cell (setting [8]), the inhibition at 10 µM was determined as 53.9 ± 3.72%.
